Structures are written as SMILES. In brackets after ≈: the same amount, converted by molar mass.

These results are taken from US6790958B2, “Purine inhibitors of cyclin dependent kinase 2 & IKBA” (priority 1996, dated 2004).

Test [1] relates to PupVSMC rat neonatal aortic smooth muscle cells. The test is described as follows: Cell proliferation assay, PupVSMC. Type of test: cell-based. The protocol:
(§1) Early passage rat aortic smooth muscle cells (CV Therapeutics Cell repository) were seeded in 48 well dishes (Falcon, […]) at a density of 20,000 cells/ml of DME containing 5% heat inactivated bovine serum. The cells were incubated in a standard tissue culture incubator for 48 hr. The medium was aspirated and the wells were replenished with 0.2 ml of fresh medium. Compounds of this invention were added at concentrations ranging from 100 to 0.37 μg/ml. After 48 hr incubation, the medium was aspirated and the cultures were treated with 0.2 ml of saline 0.25 μl of phenozine methosulfate solution containing MTS (Cell Titer 96® Aqueous Non-radioactive cell proliferation assay kit, Catalog # G 5430, Promega, 2800 Woods Hollow Road, Madison, Wis. 53711-5399).
(§2) Similar assays were performed using the following cell lines; P388—mouse lymphoid neoplasm; L1210—mouse lympheytic leukemia; Caco2 human colon adenocarcinoma; MCF7 human breast adenocarcinoma; PupVSMC rat neonatal aortic smooth muscle cells; Ovcar human ovarian Carcinoma; Pancl human pancreatic adenocarcinoma; and HUVEC human umbilical cord endothelial cells.

Another test relates to rat carotid artery. The test is described as follows: Neointima formation following balloon angioplasty, rat carotid artery model. As to conditions: 5 mg/mL, acute local delivery, 14 days after injury, treated vs untreated segment. Type of test: in vivo. From the text:
In this example, the left common carotid arteries of adult male rats (n=10 per experimental group) were surgically injured using a Fogarty arterial embolectomy catheter. Immediately after injury, the common carotid artery was bisected with a vascular clamp, thereby establishing an untreated and treated segment. A drug delivery catheter was then inserted into the distal half of the common carotid. After drug delivery, the catheter was removed and excess drug was washed out by removing the vascular clamp and re-establishing blood flow before closing the artery. The animals were allowed to recover for 14 days before harvesting the common carotid artery. The harvested tissue was sectioned and the neointimal area was digitized and measured with a computer planimetery system. For each animal, 15 measurements were averaged for the untreated segment and 15 for the treated. {2-[(2-aminoethyl)amino]-9-(methylethyl)purin-6-yl}[(4-chlorophenyl)methyl]amine was administered at a dose of 5 mg/mL reducing the neointimal area about 90% in comparison to the 6% reduction of saline alone.

The test system of test [2] is MCF7 human breast adenocarcinoma. The test is described as follows: Cell proliferation assay, MCF7. Format: cell-based. The note with it: MCF7 cells. How it is done:
as §1, §2

For test [3], the system named is Pancl human pancreatic adenocarcinoma. Briefly: Cell proliferation assay, Panc1. The note with it: Panc 1 cells. Format: cell-based. How it is done: as §1, §2
Test [4] concerns Ovcar human ovarian Carcinoma. The test is described as follows: Cell proliferation assay, OvCar. As to conditions: OvCar cells. Type of test: cell-based. How it is done: as §1, §2
Test [5] relates to Caco2 human colon adenocarcinoma. The test is described as follows: Cell proliferation assay, Caco2. Type of test: cell-based. The note with it: Caco2 cells. The protocol:
as §1, §2

In test [6] the test system is L1210 mouse lympheytic leukemia. The test is described as follows: Cell proliferation assay, L1210. As to conditions: L 120 cells. Type of test: cell-based. The protocol:
as §1, §2

Test [7] relates to P388 mouse lymphoid neoplasm. The test is described as follows: Cell proliferation assay, P388. Type of test: cell-based. As to conditions: P388 cells. How it is done:
as §1, §2

In test [1] (Rat neonatal aortic smooth muscle cells, Table 9, the values are: IC50), `CC(C)n1cnc2c(NCc3ccc(Cl)cc3)nc(NCCN)nc21` [{2-[(2-aminoethyl)amino]-9-(methylethyl)purin-6-yl}[(4-chlorophenyl)methyl]amine] registered an inhibitory activity, Pup VSMC of 0.1 µg/mL. Moreover, the “reduction of the neointimal area” value with rat carotid artery is “about 90%”.
As to `CC(C)n1cnc2c(NCc3ccc(-c4ccccc4)cc3)nc(N(CCO)CCO)nc21` [2-diethanolamino-6-(4-phenybenzylamino)-9-isopropyl Purine], the IC50 in test [2] (Homo sapiens, read-out: IC50 (μg/ml) for Inhibition of Cell Proliferation, MCF7) was found to be 1 µg/mL (≈ 2.24 µM); in test [3] (Homo sapiens, read-out: IC50 (μg/ml) for Inhibition of Cell Proliferation, Panc 1), 1.3 µg/mL (≈ 2.91 µM); in test [4] (Homo sapiens, read-out: IC50 (μg/ml) for Inhibition of Cell Proliferation, OvCar), 2 µg/mL (≈ 4.48 µM); in test [5] (Homo sapiens, Caco-2, read-out: IC50 (μg/ml) for Inhibition of Cell Proliferation, Caco2), 3.5 µg/mL (≈ 7.84 µM); in test [6] (Mus musculus, L1210, read-out: IC50 (μg/ml) for Inhibition of Cell Proliferation, L 120) it was 1 µg/mL (≈ 2.24 µM).
As to `CC(C)n1cnc2c(Nc3ccc(-c4ccccc4)cc3)nc(N(CCO)CCO)nc21` [2-diethanolamino-6-(4-phenylanilino)-9-isopropylpurine], in test [2], the “IC50 (μg/ml) for Inhibition of Cell Proliferation, MCF7” value was 4.0 µg/mL. Moreover, in test [3], the “IC50 (μg/ml) for Inhibition of Cell Proliferation, Panc 1” value came out at 4.0 µg/mL. Besides, the “IC50 (μg/ml) for Inhibition of Cell Proliferation, PupVSMC” value in test [1] (PupVSMC cells, Table 8) came to 1.0 µg/mL. For the same molecule, the “IC50 (μg/ml) for Inhibition of Cell Proliferation, OvCar” value in test [4] came out at 7.0 µg/mL. Further, the “IC50 (μg/ml) for Inhibition of Cell Proliferation, Caco2” value in test [5] was 0.5 µg/mL. In addition, the “IC50 (μg/ml) for Inhibition of Cell Proliferation, P 388” value in test [7] came to 1.0 µg/mL. For the same molecule, the “IC50 (μg/ml) for Inhibition of Cell Proliferation, L 120” value in test [6] was determined as 4.0 µg/mL.
